Tested on: 616215-338-R-J1-PDC tumor spheroids, viability
Experiment: Anticancer human tumor 616215-338-R-J1-PDC patient-derived colon adenocarcinoma cell line growth inhibition [GQUAD]
Details: spheroids with HUVEC and MSC; for IC50: curve of first compound; for viability, T/C: stronger effect = lower value
Procedure, shortened: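 Multi-cell-type spheroids of tumor cells with HUVEC and mesenchymal stem cells, treated with drug combinations. Concentrations descend in half-log steps from near clinical Cmax, or from 10 microM where Cmax is unknown; viability read-out.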

[1] = second compound 0.0316 µM, first compound 0.0316 µM
[2] = second compound 0.0316 µM, first compound 0.316 µM
[3] = second compound 0.1 µM, first compound 0.0316 µM
[4] = second compound 0.1 µM, first compound 0.316 µM
[5] = second compound 0.316 µM, first compound 0.0316 µM
[6] = second compound 0.316 µM, first compound 0.316 µM
[7] = second compound 1 µM, first compound 0.0316 µM
[8] = second compound 1 µM, first compound 0.316 µM
[9] = second compound 3.16 µM, first compound 0.0316 µM
[10] = second compound 3.16 µM, first compound 0.316 µM
[11] = second compound 10 µM, first compound 0.0316 µM
[12] = second compound 10 µM, first compound 0.316 µM
[13] = second compound 0.0316 µM, first compound 0.1 µM
[14] = second compound 0.0316 µM, first compound 1 µM
[15] = second compound 0.0316 µM, first compound 3.16 µM
[16] = second compound 0.0316 µM, first compound 10 µM
[17] = second compound 0.1 µM, first compound 0.1 µM
[18] = second compound 0.1 µM, first compound 1 µM
[19] = second compound 0.1 µM, first compound 3.16 µM
[20] = second compound 0.1 µM, first compound 10 µM
[21] = second compound 0.316 µM, first compound 0.1 µM
[22] = second compound 0.316 µM, first compound 1 µM
[23] = second compound 0.316 µM, first compound 3.16 µM
[24] = second compound 0.316 µM, first compound 10 µM
[25] = second compound 1 µM, first compound 0.1 µM
[26] = second compound 1 µM, first compound 1 µM
[27] = second compound 1 µM, first compound 3.16 µM
[28] = second compound 1 µM, first compound 10 µM
[29] = second compound 3.16 µM, first compound 0.1 µM
[30] = second compound 3.16 µM, first compound 1 µM
[31] = second compound 3.16 µM, first compound 3.16 µM
[32] = second compound 3.16 µM, first compound 10 µM
[33] = second compound 10 µM, first compound 0.1 µM
[34] = second compound 10 µM, first compound 1 µM
[35] = second compound 10 µM, first compound 3.16 µM
[36] = second compound 10 µM, first compound 10 µM
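Note: spheroids exposed to agents for 7 days before readout.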
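Throughout, for viability, T/C: percent viability relative to DMSO vehicle control wells taken as 100%.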

Structure (SMILES): Cn1ncnc1[C@H]1c2n[nH]c(=O)c3cc(F)cc(c23)N[C@@H]1c1ccc(F)cc1 + Cc1[nH]c2ccc(F)cc2c1-c1nc2c3cccnc3c3ncccc3c2[nH]1
- IC50 (second compound 0.0316 µM): > 0.316 µM
- IC50 (second compound 0.1 µM): > 0.316 µM
- IC50 (second compound 0.316 µM): > 0.316 µM
- IC50 (second compound 1 µM): > 0.316 µM
- IC50 (second compound 3.16 µM): > 0.316 µM
- IC50 (second compound 10 µM): > 0.316 µM
- viability, T/C (second compound 0.0316 µM, first compound 0.000999 µM): 104%
- viability, T/C (second compound 0.0316 µM, first compound 0.00316 µM): 98.2%
- viability, T/C (second compound 0.0316 µM, first compound 0.00999 µM): 97%
- viability, T/C [1]: 92.5%
- viability, T/C (second compound 0.0316 µM, first compound 0.0999 µM): 97.1%
- viability, T/C [2]: 94.7%
- viability, T/C (second compound 0.1 µM, first compound 0.000999 µM): 106%
- viability, T/C (second compound 0.1 µM, first compound 0.00316 µM): 89.1%
- viability, T/C (second compound 0.1 µM, first compound 0.00999 µM): 94.2%
- viability, T/C [3]: 102%
- viability, T/C (second compound 0.1 µM, first compound 0.0999 µM): 105%
- viability, T/C [4]: 87.4%
- viability, T/C (second compound 0.316 µM, first compound 0.000999 µM): 92.7%
- viability, T/C (second compound 0.316 µM, first compound 0.00316 µM): 103%
- viability, T/C (second compound 0.316 µM, first compound 0.00999 µM): 92.9%
- viability, T/C [5]: 103%
- viability, T/C (second compound 0.316 µM, first compound 0.0999 µM): 83.3%
- viability, T/C [6]: 95.3%
- viability, T/C (second compound 1 µM, first compound 0.000999 µM): 100%
- viability, T/C (second compound 1 µM, first compound 0.00316 µM): 95.7%
- viability, T/C (second compound 1 µM, first compound 0.00999 µM): 91.2%
- viability, T/C [7]: 104%
- viability, T/C (second compound 1 µM, first compound 0.0999 µM): 96%
- viability, T/C [8]: 95.6%
- viability, T/C (second compound 3.16 µM, first compound 0.000999 µM): 101%
- viability, T/C (second compound 3.16 µM, first compound 0.00316 µM): 97.3%
- viability, T/C (second compound 3.16 µM, first compound 0.00999 µM): 85.6%
- viability, T/C [9]: 93.2%
- viability, T/C (second compound 3.16 µM, first compound 0.0999 µM): 106%
- viability, T/C [10]: 87.3%
- viability, T/C (second compound 10 µM, first compound 0.000999 µM): 93.3%
- viability, T/C (second compound 10 µM, first compound 0.00316 µM): 95.4%
- viability, T/C (second compound 10 µM, first compound 0.00999 µM): 88%
- viability, T/C [11]: 78.5%
- viability, T/C (second compound 10 µM, first compound 0.0999 µM): 116%
- viability, T/C [12]: 78.6%

Structure (SMILES): COc1ncnc(C2CC2)c1-c1ncc2cnn(Cc3ccc(-c4nc(C(F)(F)F)cn4C(C)C)cc3)c2n1 + Cc1cnc(CNC(=O)c2c(=O)c3ccc(N4CCCN(C)CC4)nc3n3c2sc2ccccc23)cn1
- IC50 (second compound 0.0316 µM): > 10 µM
- IC50 (second compound 0.1 µM): > 10 µM
- IC50 (second compound 0.316 µM): < 0.0316 µM
- IC50 (second compound 1 µM): < 0.0316 µM
- IC50 (second compound 3.16 µM): < 0.0316 µM
- IC50 (second compound 10 µM): < 0.0316 µM
- viability, T/C [1]: 108%
- viability, T/C [13]: 98.7%
- viability, T/C [2]: 113%
- viability, T/C [14]: 97.2%
- viability, T/C [15]: 108%
- viability, T/C [16]: 100%
- viability, T/C [3]: 70.8%
- viability, T/C [17]: 72.2%
- viability, T/C [4]: 62.1%
- viability, T/C [18]: 57.5%
- viability, T/C [19]: 64.2%
- viability, T/C [20]: 58.3%
- viability, T/C [5]: 48.9%
- viability, T/C [21]: 46%
- viability, T/C [6]: 34.3%
- viability, T/C [22]: 34.8%
- viability, T/C [23]: 41.4%
- viability, T/C [24]: 66.7%
- viability, T/C [7]: 22.7%
- viability, T/C [25]: 35.4%
- viability, T/C [8]: 36.1%
- viability, T/C [26]: 32.6%
- viability, T/C [27]: 34.3%
- viability, T/C [28]: 31.3%
- viability, T/C [9]: 23%
- viability, T/C [29]: 28.7%
- viability, T/C [10]: 22.4%
- viability, T/C [30]: 26.7%
- viability, T/C [31]: 40.3%
- viability, T/C [32]: 27.1%
- viability, T/C [11]: 13.8%
- viability, T/C [33]: 28.4%
- viability, T/C [12]: 21.3%
- viability, T/C [34]: 25.5%
- viability, T/C [35]: 35.1%
- viability, T/C [36]: 22.1%

Structure (SMILES): Cc1cccc(N(C)C(=O)C2C(O)CCN2c2nc(C)cc(C(F)(F)F)c2C#N)c1 (stereo unspecified) + Cc1cnc(CNC(=O)c2c(=O)c3ccc(N4CCCN(C)CC4)nc3n3c2sc2ccccc23)cn1
- IC50 (second compound 0.0316 µM): > 10 µM
- IC50 (second compound 0.1 µM): < 0.0316 µM
- IC50 (second compound 0.316 µM): < 0.0316 µM
- IC50 (second compound 1 µM): < 0.0316 µM
- IC50 (second compound 3.16 µM): < 0.0316 µM
- IC50 (second compound 10 µM): < 0.0316 µM
- viability, T/C [1]: 106%
- viability, T/C [13]: 101%
- viability, T/C [2]: 109%
- viability, T/C [14]: 103%
- viability, T/C [15]: 95.8%
- viability, T/C [16]: 98.6%
- viability, T/C [3]: 37.9%
- viability, T/C [17]: 68.2%
- viability, T/C [4]: 56.2%
- viability, T/C [18]: 80.6%
- viability, T/C [19]: 81.8%
- viability, T/C [20]: 49%
- viability, T/C [5]: 50.5%
- viability, T/C [21]: 46.1%
- viability, T/C [6]: 50.2%
- viability, T/C [22]: 48.9%
- viability, T/C [23]: 57.9%
- viability, T/C [24]: 42%
- viability, T/C [7]: 32.6%
- viability, T/C [25]: 35.1%
- viability, T/C [8]: 39.1%
- viability, T/C [26]: 31.9%
- viability, T/C [27]: 38.3%
- viability, T/C [28]: 29.3%
- viability, T/C [9]: 31.7%
- viability, T/C [29]: 27.9%
- viability, T/C [10]: 33.5%
- viability, T/C [30]: 30.5%
- viability, T/C [31]: 29.1%
- viability, T/C [32]: 34.8%
- viability, T/C [11]: 30.5%
- viability, T/C [33]: 37%
- viability, T/C [12]: 31.1%
- viability, T/C [34]: 26.7%
- viability, T/C [35]: 32.2%
- viability, T/C [36]: 29.9%
